Reference: PMC10386454 (Pharmaceutics, 2023)

Key:
[1] = tested on: HEK293 empty vector transfected cells (mock); assay: ERK1/2 activation assay in mock HEK293 cells; assay type: cell-based, human; conditions: MLT 1 µM
[2] = biological target: T1, human MT1 (Homo sapiens, UniProt P48039); assay: Inhibition of forskolin-stimulated cAMP production, HEK293 cells expressing MT1; assay type: cell-based; design: expressed in transfected cells; conditions: single concentration: extracts […] (Ex18 0.005 mg/mL), melatonin 1 µM; normalized to mock cell responses
Target sequence in this assay (P48039 whole entry): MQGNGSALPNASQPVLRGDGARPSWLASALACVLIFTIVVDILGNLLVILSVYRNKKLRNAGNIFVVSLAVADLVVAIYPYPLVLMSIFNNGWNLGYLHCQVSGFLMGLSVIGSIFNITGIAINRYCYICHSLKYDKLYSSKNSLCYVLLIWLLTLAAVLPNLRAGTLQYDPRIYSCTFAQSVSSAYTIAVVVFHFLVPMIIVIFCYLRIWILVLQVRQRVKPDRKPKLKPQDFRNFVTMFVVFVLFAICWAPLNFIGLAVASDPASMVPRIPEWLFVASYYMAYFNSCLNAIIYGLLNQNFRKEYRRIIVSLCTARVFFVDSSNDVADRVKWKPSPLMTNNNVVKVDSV

[3] = biological target: T1, human MT1; assay: β-arrestin2 recruitment assay (PathHunter), MT1; assay type: cell-based; design: host or cells: HEK 293 PathHunter parental cells, transient transfection of the receptor; conditions: single saturating concentration
Target sequence in this assay (P48039 whole entry): as above
Target sequence in this assay (P32121 whole entry partner): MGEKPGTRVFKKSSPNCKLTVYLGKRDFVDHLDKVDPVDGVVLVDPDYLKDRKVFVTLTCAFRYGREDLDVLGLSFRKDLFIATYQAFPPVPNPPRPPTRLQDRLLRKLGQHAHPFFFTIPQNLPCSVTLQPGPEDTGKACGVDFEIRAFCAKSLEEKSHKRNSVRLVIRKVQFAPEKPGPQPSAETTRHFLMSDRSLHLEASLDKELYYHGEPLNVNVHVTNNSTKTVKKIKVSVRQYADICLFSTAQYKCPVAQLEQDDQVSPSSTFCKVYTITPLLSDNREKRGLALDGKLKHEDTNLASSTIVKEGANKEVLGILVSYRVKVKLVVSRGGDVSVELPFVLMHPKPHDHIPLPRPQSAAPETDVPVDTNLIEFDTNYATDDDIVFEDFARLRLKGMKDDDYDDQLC

[4] = tested on: HEK293 empty vector transfected cells (mock); assay: β-arrestin2 recruitment assay (PathHunter), control cells with β-gal donor not fused to melatonin receptors; assay type: cell-based, human; conditions: extracts […], Ex18 0.005 mg/mL, MLT 1 µM
[5] = tested on: HEK293 empty vector transfected cells (mock); assay: Forskolin-stimulated cAMP production in mock-transfected HEK293 cells; assay type: cell-based, human; conditions: extracts […] (Ex18 0.005 mg/mL), melatonin 1 µM
[6] = biological target: T2, human MT2 receptor (Homo sapiens, UniProt P49286); assay: 2-[125I]iodomelatonin competitive binding assay, MT2
T2 construct: expressed in transfected cells
T2 sequence (P49286 1-362): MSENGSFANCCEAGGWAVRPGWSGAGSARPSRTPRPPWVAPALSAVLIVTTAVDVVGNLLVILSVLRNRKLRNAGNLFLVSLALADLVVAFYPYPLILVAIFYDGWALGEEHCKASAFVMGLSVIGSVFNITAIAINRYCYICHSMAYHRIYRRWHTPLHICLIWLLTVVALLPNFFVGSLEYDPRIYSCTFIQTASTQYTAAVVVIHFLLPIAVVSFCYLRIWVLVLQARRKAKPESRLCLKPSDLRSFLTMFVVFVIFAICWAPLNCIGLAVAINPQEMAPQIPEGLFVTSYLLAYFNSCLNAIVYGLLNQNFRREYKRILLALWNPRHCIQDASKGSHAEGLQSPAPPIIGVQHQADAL

[7] = biological target: T1, human MT1; assay: 2-[125I]iodomelatonin competitive binding assay, MT1; design: expressed in transfected cells
Target sequence in this assay (P48039 whole entry): as the sequence (P48039 whole entry) above

## COc1ccc2[nH]cc(CCNC(C)=O)c2c1 [Melatonin, N-acety-5-methoxyltryptamine]
[1]
  effect on ERK1/2 pathway in mock cells, in words: without effect
[2]
  effect on FSK-stimulated cAMP production, cells expressing MT1: decreased FSK-stimulated cAMP production
[3]
  β-arrestin2 recruitment, MT1-β-gal donor fusion protein: induced β-arrestin2 recruitment
[4]
  β-arrestin2 recruitment in control cells (β-gal donor alone): Neither melatonin nor any extract induced β-arrestin2 recruitment
[5]
  effect on forskolin (FSK)-stimulated cAMP levels in mock cells: did not show any effect

## maltodextrin
[6]
  2-[125I]-MLT binding to MT2, result in words: no impact
[7]
  2-[125I]-MLT binding to MT1, result in words: no impact
